Data published in patent US20040259082A1.

Tests used:
[1] = molecular target: Klenow (Escherichia coli, UniProt P00582); assay: Charged nucleobase (aminoallyl-dUTP) as polymerase substrate; type: biochemical; conditions: dATP, dCTP, dGTP plus AA-dUTP
Description: (§1) Arrows indicate the extension products.
(§2) Charged Nucleobase as a Polymerase Substrate. […] Aminoallyl-dUTP was tested with 4 different polymerases.

[2] = molecular target: HIV-RT (Human immunodeficiency virus type 1 group M subtype B, UniProt P03366); assay: as above; type: biochemical; conditions: dATP, dCTP, dGTP plus AA-dUTP
Description: as §1, §2

[3] = molecular target: Taq (Thermus aquaticus, UniProt P19821); assay: as above; type: biochemical; conditions: dATP, dCTP, dGTP plus AA-dUTP
Taq, sequence (P19821 whole entry): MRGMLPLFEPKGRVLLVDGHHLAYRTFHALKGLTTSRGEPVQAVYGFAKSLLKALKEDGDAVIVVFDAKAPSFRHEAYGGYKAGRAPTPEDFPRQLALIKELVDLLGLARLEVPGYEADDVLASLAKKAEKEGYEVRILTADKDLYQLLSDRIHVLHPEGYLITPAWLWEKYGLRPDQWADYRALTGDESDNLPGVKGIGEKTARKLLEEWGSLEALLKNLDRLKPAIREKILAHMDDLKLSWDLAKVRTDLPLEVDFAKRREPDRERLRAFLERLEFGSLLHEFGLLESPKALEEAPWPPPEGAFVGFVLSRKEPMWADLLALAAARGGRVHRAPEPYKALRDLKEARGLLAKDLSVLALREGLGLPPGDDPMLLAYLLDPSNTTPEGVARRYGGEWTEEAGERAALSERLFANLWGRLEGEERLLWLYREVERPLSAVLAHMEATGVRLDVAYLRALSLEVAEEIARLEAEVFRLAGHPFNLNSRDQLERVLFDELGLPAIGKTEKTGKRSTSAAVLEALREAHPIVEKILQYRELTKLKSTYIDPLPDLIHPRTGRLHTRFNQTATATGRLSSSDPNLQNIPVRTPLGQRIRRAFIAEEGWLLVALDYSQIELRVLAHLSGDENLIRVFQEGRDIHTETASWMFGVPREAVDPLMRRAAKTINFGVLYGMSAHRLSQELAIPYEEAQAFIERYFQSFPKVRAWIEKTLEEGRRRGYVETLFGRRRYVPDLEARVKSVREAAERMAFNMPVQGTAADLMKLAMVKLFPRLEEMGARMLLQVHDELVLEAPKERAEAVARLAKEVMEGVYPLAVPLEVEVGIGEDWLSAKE
Description: as §1, §2

[4] = molecular target: T7 Sequenase 2.0 (Escherichia phage T7, UniProt P00581, DEL118-145); conditions: dATP, dCTP, dGTP plus AA-dUTP
Description: Samples contain dATP, dCTP, dGTP and either dUTP (first lane of each enzyme) or AA-dUTP (second lane each enzyme). Arrows indicate the extension products.

[5] = Photodegradation and single molecule detection calculation; conditions: 60 photons, 0.45% detection efficiency, 13,333 excitations
[6] = Capillary electrophoresis of unlabeled nucleotides with Mg++; type: physicochemical
Description: FIG. 14 illustrates the effect of Mg^++ on electrophoretic mobility of unlabeled nucleotides.
Electrophoresis Results. A γ-dNTP (FIG. 13A) with the charge configuration N(0) F(+2) was synthesized and its electrophoretic mobility examined in an agarose gel as a function of Mg^++ concentration (FIG. 13B). As expected (FIG. 12B), its mobility changed from negative to positive with increasing Mg^++, passing through zero at about 3 mM Mg^++. A direct comparison with the calculation (FIG. 12B) is not possible because, while the gels contained the indicated Mg^++ concentrations, the samples (20 μL) loaded in each lane contained 10 mM Mg^++. The importance of attaching a (+2) charge to the γ-label (FIG. 13A) with respect to obtaining a bipolar switch mode (neg to pos) is illustrated by a capillary electrophoresis experiment with unlabeled dTDP and dTTP (FIG. 14). […] It is clear that additional positive charge can be added to the these nucleotides if one desires a negative to positive charge switch. This is what was done with the γ-dNTP of FIG. 13.

[7] = molecular target: T1, T7 polymerase exo- (Escherichia phage T7, UniProt P00581, D5A/E7A); assay: Steady-state kinetics, Km determination for dTTP; type: biochemical; conditions: Lineweaver-Burk plot; 5 sec at 20° C.
T1 construct: made in house; host or cells: E. coli TOP 10

[8] = molecular target: HIV-1 RT (Human immunodeficiency virus type 1 group M subtype B, UniProt P03366); conditions: 50 μM dATP, dCTP, dGTP; 37° C. for 30 min
Description: FIG. 6 illustrates the utilization of different γ-dNTPs by T7 Sequenase 2.0 and HIV polymerases. Samples contain 50 μM dATP, dCTP, dGTP and either (a) dUTP; (b) γ-dUTP-BodipyTR; (c) γ-dUTP-Fluorescein; or a control (d) omitting dUTP and its analogs. Incubation was at 37° C. for 30 min.
18 commercially-available polymerases were screened for the utilization of γ-dUTP-BodipyTR.

## NC/C=C/c1cn([C@H]2C[C@H](O)[C@@H](COP(=O)(O)OP(=O)(O)OP(=O)(O)O)O2)c(=O)[nH]c1=O [Aminoallyl-dUTP]
[1]
  extension product with AA-dUTP: stopped at the dUTP incorporation sites
[2]
  extension product with AA-dUTP: produced full-length product
[3]
  extension product with AA-dUTP: stopped at the dUTP incorporation sites
[4]
  extension product with AA-dUTP: produced full-length product

## CN(C)c1ccc2c(-c3ccccc3C(=O)[O-])c3ccc(N(C)C)cc3[o+]c2c1 [TMR, tetramethylrhodamine]
[5]
  molecules escaping detection due to photodegradation: 0.44%

## Cc1cn([C@H]2C[C@H](O)[C@@H](COP(=O)(O)OP(=O)(O)O)O2)c(=O)[nH]c1=O [dTDP]
[6]
  charge in presence of Mg++: remained in negative territory

## Cc1cn([C@H]2C[C@H](O)[C@@H](COP(=O)(O)OP(=O)(O)OP(=O)(O)O)O2)c(=O)[nH]c1=O [dTTP]
[7]
  Km: 13 µM
[6]
  charge in presence of Mg++: remained in negative territory

## O=c1ccn([C@H]2C[C@H](O)[C@@H](COP(=O)(O)OP(=O)(O)OP(=O)(O)O)O2)c(=O)[nH]1 [dUTP]
[8]
  incorporation of γ-dUTP analogs / dUTP (FIG. 6): synthesized full-length product
